Where two headings read alike, the source gives them in different places. Values belong to the compound of their own block, whether it stands above or below them.
Key:
[1] = system: MSI-H colorectal cancer SW48 cell line; experiment: 2D anti-proliferative activity, MSI-H SW48 cells (CTG, 5 days); type: cell-based; settings: for IC50: 5 days; for inhibition at 38.15 pM: 0.038146973 nM; for inhibition at 0.000152588 µM: 0.152587891 nM; for inhibition at 0.000610352 µM: 0.610351563 nM; for inhibition at 0.00244141 µM: 2.44140625 nM; for inhibition at 0.00976562 µM: 9.765625 nM; for inhibition at 0.0390625 µM: 39.0625 nM; for inhibition at 0.15625 µM: 156.25 nM; for inhibition at 0.625 µM: 625 nM; for inhibition at […]: 2500 nM; for inhibition at 10 µM: 10000 nM
Procedure: The molecules of the present disclosure were tested for their anti-proliferative activity against MSI-H tumor cells.
The proliferation of tumor cells with microsatellite instability MSI-H is sensitive to WRN inhibitors, while the proliferation of microsatellite stable (MSS) tumor cells is insensitive to WRN inhibitors. By testing the activities of the two, it is shown that the molecules of the present disclosure have an inhibitory and synthetic lethal effect on WRN at the cellular level.
(§1) The MSI-unstable SW48 colorectal cancer cells were cultured in RPMI 1640 medium containing 10% FBS and 1% penicillin-streptomycin in a 37° C., 5% CO2 constant temperature incubator. A 40 μL cell suspension was added to each well of a 384-well microplate. Using Echo, 40 nL of compounds at different concentrations was dispensed into each well, followed by incubation in a 37° C., 5% CO2 constant temperature incubator for 5 days. Then, 40 μL of CTG solution (Promega, Cat No. G7573) was added to each well, and the plate was incubated in the dark in a 37° C., 5% CO2 constant temperature incubator for 30 minutes. Luminescence was measured using an Envision multi-function microplate reader (Perkin Elmer, Model: Envision 2104). The luminescent signal was proportional to the amount of ATP in the system, and the amount of ATP directly represented the number of living cells in the system.

[2] = Liver microsome stability test; type: in vitro ADME; settings: human liver microsomes 0.5 mg/mL, compound 1 μM, NADPH 1 mM, 60 minutes; for microsomal CLint at 1 μM: read-out: Human Clint μL/min/mg Protein
Procedure: The liver microsome stability test of the compounds is as follows:
The compounds of the present disclosure were subjected to a liver microsome stability test. The compounds to be tested were co-incubated with liver microsomes of different species with or without the addition of NADPH. The final concentration of the compounds to be tested in the test system was 1 μM, the final concentration of NADPH was 1 mM, and the final concentration of liver microsomes was 0.5 mg/mL.

[3] = target: WRN helicase (Homo sapiens, UniProt Q14191); experiment: WRN helicase hydrolysis/unwinding of double-stranded DNA (fluorescence); type: biochemical
Procedure: The activity of the molecules of the present disclosure on the hydrolysis of double-stranded PP-6TR DNA by WRN helicase was tested.
The working solution and buffer were prepared, and the test compound was dissolved in DMSO followed by a4-fold dilution (with a final concentration of 10 μM as the starting concentration). Then, 0.2 μL of the test compound solution was added to a384-well plate, followed by 10 μL of (2×) WRN enzyme solution. The mixture was incubated in the dark for 30 minutes, after which 10 μL of substrate detection solution containing double-stranded DNA was added to initiate the reaction (DNA length: 19 bp, labeled with TAMRA at the 3′ end and BHQ2 at the 5′ end). The mixture was incubated at room temperature for 60 minutes. The inhibitory activity (IC50) against the WRN enzyme was calculated based on the fluorescence change (Ex530/Em590) between the blank group (DMSO) and the compound group.

[4] = system: MSS colorectal cancer HT-29 cell line; experiment: 2D anti-proliferative activity, MSS HT-29 cells (CTG, 5 days); type: cell-based
Procedure: The molecules of the present disclosure were tested for their anti-proliferative activity against MSS tumor cells.
as §1, with “MSS HT-29” for “MSI-unstable SW48”, “McCoy's 5A” for “RPMI 1640”

[5] = Pharmacokinetic evaluation in mice; type: in vivo, CD1 female mice; settings: for AUC(0-t): read-out: AUC0-24
Procedure: CD1 female mice were used as test animals and the drug was administered orally/intravenously (oral dosage: 10 mg/kg, intravenous dosage: 2 mg/kg).
Assay protocol: The oral group consisted of 3 mice per group (vehicle: 10% Hβ-CD-pH7.4), and the intravenous group consisted of 3 mice per group. […] The blood concentrations in plasma after oral and intravenous administration of mice were determined by LC/MS/MS, respectively.

[6] = Homo sapiens, read-out: Average value/ Inhibition rate
[7] = Homo sapiens, read-out: Test 1/ Inhibition rate
[8] = Homo sapiens, read-out: Test 2/ Inhibition rate
[9] = female, CD1, mouse, plasma, IV 2 mg/kg
[10] = female, CD1, mouse, plasma, PO 10 mg/kg

WRN helicase, sequence (Q14191 whole entry): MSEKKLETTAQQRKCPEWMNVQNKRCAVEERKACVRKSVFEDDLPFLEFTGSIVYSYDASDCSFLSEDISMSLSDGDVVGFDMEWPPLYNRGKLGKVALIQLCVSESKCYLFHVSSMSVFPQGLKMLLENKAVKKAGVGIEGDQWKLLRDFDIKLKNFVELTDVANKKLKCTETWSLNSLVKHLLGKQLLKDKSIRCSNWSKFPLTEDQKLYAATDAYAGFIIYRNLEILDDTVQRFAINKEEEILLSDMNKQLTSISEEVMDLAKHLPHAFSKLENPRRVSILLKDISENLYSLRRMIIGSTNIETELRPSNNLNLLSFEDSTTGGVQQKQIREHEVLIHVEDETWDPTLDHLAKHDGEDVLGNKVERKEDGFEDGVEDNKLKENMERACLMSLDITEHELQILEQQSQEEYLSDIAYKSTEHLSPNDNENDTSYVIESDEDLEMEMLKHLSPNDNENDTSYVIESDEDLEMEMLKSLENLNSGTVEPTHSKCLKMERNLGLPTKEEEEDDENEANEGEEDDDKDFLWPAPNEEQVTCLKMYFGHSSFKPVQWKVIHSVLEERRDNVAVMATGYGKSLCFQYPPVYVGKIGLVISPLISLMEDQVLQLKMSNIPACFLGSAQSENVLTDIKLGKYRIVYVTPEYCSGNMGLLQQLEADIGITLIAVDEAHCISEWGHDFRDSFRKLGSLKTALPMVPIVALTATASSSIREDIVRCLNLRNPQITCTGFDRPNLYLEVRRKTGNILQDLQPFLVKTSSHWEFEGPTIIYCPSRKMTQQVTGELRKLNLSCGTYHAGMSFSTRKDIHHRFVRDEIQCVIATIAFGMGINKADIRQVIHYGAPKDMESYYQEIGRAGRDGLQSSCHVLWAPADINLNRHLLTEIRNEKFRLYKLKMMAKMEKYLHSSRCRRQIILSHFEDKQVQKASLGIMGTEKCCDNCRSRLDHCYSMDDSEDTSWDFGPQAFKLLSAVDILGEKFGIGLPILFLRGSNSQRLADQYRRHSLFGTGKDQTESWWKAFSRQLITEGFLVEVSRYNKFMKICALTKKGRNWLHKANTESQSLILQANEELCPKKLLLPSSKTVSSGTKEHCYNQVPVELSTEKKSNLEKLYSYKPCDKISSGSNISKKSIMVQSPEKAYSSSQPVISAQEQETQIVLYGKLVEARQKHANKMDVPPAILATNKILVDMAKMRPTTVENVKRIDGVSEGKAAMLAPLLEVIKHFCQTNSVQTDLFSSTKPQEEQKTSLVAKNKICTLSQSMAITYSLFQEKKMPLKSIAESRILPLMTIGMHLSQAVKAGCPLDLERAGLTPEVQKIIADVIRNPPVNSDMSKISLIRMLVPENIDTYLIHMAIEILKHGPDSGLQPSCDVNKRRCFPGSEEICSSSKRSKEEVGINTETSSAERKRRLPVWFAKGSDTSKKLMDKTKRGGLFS

- IC50 ([1]; Homo sapiens, 120 h): 131 nM
- CLint scaled at 1 μM [2]: 19.7 mL/min/kg
- microsomal CLint at 1 μM [2]: 15.7 µL/min/mg
- IC50 [3]: 1.4 nM
- IC50 ([4]; Homo sapiens, 120 h): 3500 nM
SMILES: CCc1c(N2CCN(C(=O)c3ncccc3O)CC2)c(=O)n2nc(C3=CCOCC3)nc2n1CC(=O)Nc1ccc(C(F)(F)F)c2ccsc12 [Compound H2]

- IC50 [1]: 216 nM
- Human Clint μL/min/mg Protein [2]: 2.2 μL/min/mg Protein
- Human Clint/(mL/min/kg) [2]: 2.7 mL/min/kg
- IC50 [3]: 1.6 nM
- IC50 [4]: > 10000 nM
SMILES: CCc1c(N2CCN(C(=O)c3ncnc(C)c3O)CC2)c(=O)n2nc(C3=CCOCC3)nc2n1CC(=O)Nc1ccc(C(F)(F)F)c2c1OCC2 [Compound H3]

- IC50 ([1]; Homo sapiens, 120 h): 124 nM
- IC50 [3]: 1.3 nM
- IC50 ([4]; Homo sapiens, 120 h): 1480 nM
SMILES: CCc1c(N2CCN(C(=O)c3ncccc3O)CC2)c(=O)n2nc(C3=CCC(OC)CC3)nc2n1CC(=O)Nc1ccc(C(F)(F)F)c2ccsc12 (stereo not drawn) [Compound H8]

- IC50 ([1]; Homo sapiens, 120 h): 193 nM
- CLint scaled at 1 μM [2]: 13 mL/min/kg
- microsomal CLint at 1 μM [2]: 10.3 µL/min/mg
- IC50 [3]: 1.7 nM
- IC50 ([4]; Homo sapiens, 120 h): > 10000 nM
SMILES: CCc1c(N2CCN(C(=O)c3ncccc3O)CC2)c(=O)n2nc(N3CCOCC3)nc2n1CC(=O)Nc1ccc(C(F)(F)F)c2ccsc12 [Compound H9]

- IC50 ([1]; Homo sapiens, 120 h): 1140 nM
- IC50 [3]: 2.4 nM
- IC50 ([4]; Homo sapiens, 120 h): 7410 nM
SMILES: CCc1c(N2CCN(C(=O)c3ncccc3O)CC2)c(=O)n2nc(N3CCC[C@H](F)C3)nc2n1CC(=O)Nc1ccc(C(F)(F)F)c2ccsc12 [Compound H11]

- IC50 ([1]; Homo sapiens, 120 h): 28 nM
- F ([5]; PO 10 mg/kg vs IV 2 mg/kg): 24%
- clearance [5, 9]: 42.9 mL/min/kg
- AUC(0-t) [5, 9]: 722 ng·h/mL
- C0 ([5]; female, CD1, mouse, plasma, IV 2 mg/kg, read-out: C0): 2530 ng/mL
- half-life [5, 10]: 66 min
- AUC(0-t) [5, 10]: 943 ng·h/mL
- Cmax ([5]; female, CD1, mouse, plasma, PO 10 mg/kg, read-out: Cmax): 551 ng/mL
- Tmax ([5]; female, CD1, mouse, plasma, PO 10 mg/kg, read-out: Tmax): 30 min
- CLint scaled at 1 μM [2]: 7.9 mL/min/kg
- microsomal CLint at 1 μM [2]: 6.3 µL/min/mg
- IC50 [3]: 1.2 nM
- IC50 ([4]; Homo sapiens, 120 h): > 10000 nM
SMILES: CCc1c(N2CCN(C(=O)c3ncnc(C)c3O)CC2)c(=O)n2nc(C3=CCOCC3)nc2n1CC(=O)Nc1ccc(C(F)(F)F)c2sccc12 [Compound H13]
- inhibitory activity on SW48 cells ([1]; 39 nM): high inhibitory activity
- inhibition at 38.15 pM [1, 6]: -1.31%
- inhibition at 38.15 pM [1, 7]: -1.51%
- inhibition at 38.15 pM [1, 8]: -1.1%
- inhibition at 0.000152588 µM [1, 6]: 0.853%
- inhibition at 0.000152588 µM [1, 7]: 2.48%
- inhibition at 0.000152588 µM [1, 8]: -0.775%
- inhibition at 0.000610352 µM [1, 6]: -1.43%
- inhibition at 0.000610352 µM [1, 7]: -3.56%
- inhibition at 0.000610352 µM [1, 8]: 0.706%
- inhibition at 0.00244141 µM [1, 6]: -3.17%
- inhibition at 0.00244141 µM [1, 7]: 0.0291%
- inhibition at 0.00244141 µM [1, 8]: -6.36%
- inhibition at 0.00976562 µM [1, 6]: 0.332%
- inhibition at 0.00976562 µM [1, 7]: -3.9%
- inhibition at 0.00976562 µM [1, 8]: 4.57%
- inhibition at 0.0390625 µM [1, 6]: 76.4%
- inhibition at 0.0390625 µM [1, 7]: 76.2%
- inhibition at 0.0390625 µM [1, 8]: 76.6%
- inhibition at 0.15625 µM [1, 6]: 97.6%
- inhibition at 0.15625 µM [1, 7]: 98.6%
- inhibition at 0.15625 µM [1, 8]: 96.6%
- inhibition at 0.625 µM [1, 6]: 99.4%
- inhibition at 0.625 µM [1, 7]: 99.6%
- inhibition at 0.625 µM [1, 8]: 99.2%
- inhibition at […] [1, 6]: 99.6%
- inhibition at […] [1, 7]: 99.7%
- inhibition at […] [1, 8]: 99.5%
- inhibition at 10 µM [1, 6]: 101%
- inhibition at 10 µM [1, 7]: 103%
- inhibition at 10 µM [1, 8]: 100%

- IC50 ([1]; Homo sapiens, 120 h): 2200 nM
- IC50 [3]: 3.9 nM
- IC50 ([4]; Homo sapiens, 120 h): > 10000 nM
SMILES: CCc1c(N2CCN(C(=O)c3ncnc(C)c3O)CC2)c(=O)n2nc(C3=CCOCC3)nc2n1CC(=O)Nc1ccc(C(F)(F)F)c2ncsc12 [Compound H14]

- IC50 ([1]; Homo sapiens, 120 h): 125 nM
- CLint scaled at 1 μM [2]: 0.73 mL/min/kg
- microsomal CLint at 1 μM [2]: 0.58 µL/min/mg
- IC50 [3]: 0.9 nM
- IC50 ([4]; Homo sapiens, 120 h): > 10000 nM
SMILES: CCc1c(N2CCN(C(=O)c3nccc(Cl)c3O)CC2)c(=O)n2nc(C3=CCOCC3)nc2n1CC(=O)Nc1ccc(C(F)(F)F)c2ccsc12 [Compound H19]

- IC50 ([1]; Homo sapiens, 120 h): 75 nM
- CLint scaled at 1 μM [2]: 25.9 mL/min/kg
- microsomal CLint at 1 μM [2]: 20.6 µL/min/mg
- IC50 [3]: 1 nM
- IC50 ([4]; Homo sapiens, 120 h): > 10000 nM
SMILES: CCc1c(N2CCN(C(=O)c3nccc(F)c3O)CC2)c(=O)n2nc(C3=CCOCC3)nc2n1CC(=O)Nc1ccc(C(F)(F)F)c2ccsc12 [Compound H20]

From patent US20260216197A1, “WRN HELICASE INHIBITOR” (SUZHOU PUHE BIOPHARMA CO., LTD., priority 2022, published 2026)
